Calls of active or inactive are those of the source. How the calls were made is not given here. Numbered stars: 1 amine (or outer) side, 2 acyl side, 3 side chain; on linkers, the order of the positions; unused ones are H or OH. Square brackets hold non-standard residues; d marks the D form. Peptide text beside a SMILES is read from it. ξ: configuration not given here. ξβ3hGly(undecyl) = CCCCCCCCCCCC(CC(=O)[*:2])N[*:1]
Biological target: Ubiquitin carboxyl-terminal hydrolase isozyme L1 (Homo sapiens) (UniProt P09936)
Sequence (P09936 whole entry, looked up): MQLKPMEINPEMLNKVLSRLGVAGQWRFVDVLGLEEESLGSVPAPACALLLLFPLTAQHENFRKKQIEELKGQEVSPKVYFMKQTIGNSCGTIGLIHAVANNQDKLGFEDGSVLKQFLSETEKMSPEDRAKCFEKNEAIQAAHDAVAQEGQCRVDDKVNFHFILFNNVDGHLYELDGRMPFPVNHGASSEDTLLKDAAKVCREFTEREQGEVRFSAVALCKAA
Assay: UCH-L1 deubiquitylase inhibitors, biochemical concentration-response, hit retest (AID 1645867)
Conditions: recombinant UCHL1 deubiquitinase activity assay

IC50	SMILES
> 25 µM (inactive)	CCOc1ccc2c(c1)c(=O)c(C(=O)c1ccc(C)cc1)cn2CC(=O)Nc1ccc(C)cc1
> 25 µM (inactive)	O=c1cc(Cc2ccccc2)nc2c(-c3ccccc3)c(COc3ccccc3)[nH]n12
> 25 µM (inactive)	COc1ccc(OC)c2c(C)cc(N3CC(C)CC(C)C3)nc12 (stereo unspecified)
> 25 µM (inactive)	CC(NC(=O)c1ccccc1)c1nc2ccccc2n1CC(=O)Nc1ccc2c(c1)OCO2 (stereo unspecified)
> 25 µM (inactive)	O=C(O)c1ccc(Cl)c(NC(=O)C2COc3ccccc3O2)c1 (stereo unspecified)
> 25 µM (inactive)	CCC1OC(O)(C(C)C(O)C(C)C2OC(=O)/C(C)=C/C(C)=CC(C)C(O)C(C)C/C(C)=C/C=C/C2OC)CC(OC(=O)/C=C/C(=O)NC2=C(O)CCC2=O)C1C (stereo unspecified)
18.3 µM	CSc1ncccc1C(=O)NC1(O)C(=O)c2ccccc2C1=O
> 25 µM (inactive)	Cc1ccc(-n2nc3c(c2NC(=O)c2ccc(F)c(F)c2)CS(=O)(=O)C3)cc1
> 25 µM (inactive)	O=c1c(-c2nc(-c3ccncc3)no2)cccn1Cc1c(F)cccc1Cl
> 25 µM (inactive)	COc1ccc(-c2noc(CN3CCCC3c3cnn(C)c3)n2)cc1 (stereo unspecified)
> 25 µM (inactive)	O=C(Nc1nc2c(s1)CN(C(=O)c1cc(-c3ccco3)on1)CC2)C1CCCO1 (stereo unspecified)
> 25 µM (inactive)	CCOc1ccc(-n2ccnc(SCC(=O)Nc3ccccc3F)c2=O)cc1
> 25 µM (inactive)	Cc1ccc(NC(=O)Nc2ccc(C)n(CC(=O)Nc3cccc(C)c3)c2=O)cc1
> 25 µM (inactive)	CC[C@H](C)[C@H](NC(=O)[C@H]([C@@H](C)CC)N(C)C(C)=O)C(=O)N[C@H](C(=O)N[C@@H](CC(C)C)C(=O)C1(C)CO1)[C@@H](C)O (stereo partly specified)
> 25 µM (inactive)	Cc1ccc2[nH]c(=O)c(-c3nc4ccc(C)cn4c3NCc3ccc(F)cc3)cc2c1
> 25 µM (inactive)	COc1cn(CC(=O)Nc2ccc(Cl)cc2)c(CSc2ccccc2)cc1=O
> 25 µM (inactive)	O=c1[nH]c(=O)n(Cc2ccccc2)c2c1CN(CCc1ccccc1)CN2
> 25 µM (inactive)	Cc1ccccc1NC(=O)Nc1ccccc1OCc1cc(=O)n2cccc(C)c2n1
> 25 µM (inactive)	O=C(Cn1c(COc2ccccc2)nc2ccccc21)Nc1cc(Cl)cc(Cl)c1
> 25 µM (inactive)	CCCCCCCCCCCC1CC(=O)NC(CC(N)=O)C(=O)NC(Cc2ccc(O)cc2)C(=O)NC(CC(N)=O)C(=O)NC(CCC(N)=O)C(=O)N2CCCC2C(=O)NC(CC(N)=O)C(=O)NC(CO)C(=O)N1 (stereo not drawn) (cyclo([ξβ3hGly(undecyl)]NYNQPNS); configuration not given here)

IC50	SMILES
> 25 µM (inactive)	O=C(c1ccc(Cl)cc1)N(c1ccccn1)C1CCCCC1
> 25 µM (inactive)	O=c1c2cnc(N3CCCCC3)nc2ccn1CCc1ccccc1
> 25 µM (inactive)	CCOc1ccc2c(c1)c(=O)c(C(=O)c1ccccc1)cn2CC(=O)Nc1ccc(Cl)cc1
> 25 µM (inactive)	COc1ccc(-c2nc(CNC(=O)c3ccccc3C)cs2)cc1
> 25 µM (inactive)	COc1ccc(-c2cc3nc([C@H](C)NC(=O)COc4ccccc4F)nn3cn2)cc1
> 25 µM (inactive)	COc1cccc(C(=O)N2CCc3nc(-c4ccc(F)cc4)ncc3C2)c1
> 25 µM (inactive)	Cc1ccc(C(=O)c2cn(CC(=O)Nc3ccc4c(c3)OCO4)c3ccccc3c2=O)cc1
> 25 µM (inactive)	CCOc1ccc(NC(=O)Cn2c(=O)n(CCCCCC(=O)NCc3ccc(F)cc3)c(=O)c3sccc32)cc1
> 25 µM (inactive)	COc1ccc(-c2cc3nc([C@H](C)NC(=O)Cc4cc(F)ccc4F)nn3cn2)cc1
> 25 µM (inactive)	COc1cc(O)c2c(O)c3c(cc2c1)CC(C)OC3=O (stereo unspecified)
> 25 µM (inactive)	O=C(C1CCCCC1)N1CCN(c2nc3c(F)cccc3s2)CC1
> 25 µM (inactive)	Cc1nn(-c2ccccc2)c(C)c1S(=O)(=O)N1CCN(c2ccccn2)CC1
> 25 µM (inactive)	Cc1cc2nc(N3CCN(C(=O)c4ccccc4)CC3)c3ccccc3n2n1
> 25 µM (inactive)	CCCc1ccc(C(=O)[C@@H]2[C@@H](C(=O)c3cccs3)N3c4ccc(C)cc4C(C)=C[C@@H]3[C@@]23C(=O)Nc2ccccc23)cc1
> 25 µM (inactive)	O=C(c1cccc2ncccc12)N1CCN(c2ccnc3cc(Cl)ccc23)CC1
11.6 µM	CC1OC2CC(O)C1(O)C1=C2C(O)=C(C(N)=O)C(=N)C1=O (stereo unspecified)
> 25 µM (inactive)	O=C1[C@H]2Cc3c([nH]c4ccccc34)CN2C(=O)CN1Cc1ccc(F)cc1
> 25 µM (inactive)	COc1ccc(CNC(=O)Nc2cccc3ccccc23)cc1
> 25 µM (inactive)	CN(c1ccccc1)S(=O)(=O)c1ccc(C(=O)Nc2cccc(C#N)c2)cc1

SMILES	IC50
CO/C1=C\C(C)=C\[C@@H](C)[C@@H](O)[C@H](C)C/C(C)=C/C=C/[C@H](OC)[C@@H]([C@@H](C)[C@@H](O)[C@H](C)[C@@]2(O)C[C@@H](OC(=O)/C=C/C(=O)NC3=C(O)CCC3=O)[C@H](C)[C@@H](C(C)C)O2)OC1=O	> 25 µM (inactive)
COC1=C(C2=C(OC)C(=O)c3cc4c(c(O)c3C2=O)C(=O)OC(C)C4)C(=O)c2c(cc3c(c2O)C(=O)OC(C)C3)C1=O (stereo unspecified)	11.9 µM

From PubChem BioAssay AID1645867 (Buhrlage Lab, Dana-Farber Cancer Institute and Novartis …, 2021)
